Data published in US20190374627A1, “TARGET PEPTIDES FOR CANCER THERAPY AND DIAGNOSTICS” (priority 2016, published 2019).
Square brackets hold non-standard residues; d marks the D form. Ends that are not written are not given here. pT = C[C@@H](OP(=O)(O)O)[C@H](N)C(=O)O; pS = N[C@@H](COP(=O)(O)O)C(=O)O

Assays:
CD8^+ T cells (PBMCs) = test: Intracellular cytokine staining (ICS) of PBMCs after 7 days of stimulation with MHC-I-pP (healthy donors, HH patients); format: cell-based, human; details: for Reactive CD8^+ T cell population, HH2: HH patient HH2; for Reactive CD8^+ T cell population, HH3: HH patient HH3; for Reactive CD8^+ T cell population, HH8: HH patient HH8; for Reactive CD8^+ T cell population, HH11: HH patient HH11
Procedure: From this, CD8^+ T cell responses against newly identified MHC class I-associated phosphopeptides in healthy individuals and patients with chronic liver disease were investigated. Twenty-one of the newly identified HCC-associated HLA-A*0201-restricted phosphopeptides were selected (see Table 17) for further immunological testing in HLA-A*0201 positive patients. MHC-I-pP-specific cytotoxic CD8^+ T cell responses (ppCTL) were assessed using intracellular cytokine staining (ICS) and several cytokines and surface markers were assessed in parallel. After 7 days of stimulation with the respective MHC-I-pP and no other cytokines, CD3- and CD8-expressing T cells were stained for at least two different cytokines (IFN-γ, TNF-α) and when required CD107a expression as a marker for their cytotoxic potential.
First, peripheral blood mononuclear cells (PBMCs) from healthy donors and patients with hereditary hemochromatosis (HH) were analyzed. HH is a chronic liver disease characterized by excessive intestinal absorption of dietary iron resulting in a pathological deposition of iron in the liver. PBMCs or lymphocytes from liver tissue were extracted and specifically stimulated with (phospho-) peptides for 7 days before intracellular cytokine staining (ICS). Doublets and dead cells, using a fixable viability dye, were excluded. Lymphocytes were gated on CD3^+ and CD8^+ double positive cells and were analysed for expression of IFNγ, TNFα-, and CD107a.

[1] = system: unexpanded lymphocyte cultures (CD8^+ T cells); test: ICS for MHC-I-pP reactivity of lymphocyte cultures without expansion (Table 23, No Expansion); details: HH6
[2] = system: expanded TIL / IHL cultures; test: ICS for MHC-I-pP reactivity of liver-derived lymphocyte cultures after unspecific rapid expansion protocol (REP); format: cell-based, human
[3] = system: expanded lymphocyte cultures from deceased donor livers, cirrhotic livers and HCC; test: ICS for MHC-I-pP reactivity of liver-derived lymphocyte cultures after phosphopeptide-specific expansion; format: cell-based, human; details: for ppCTL response, HCC Distal HCC 1: HCC 1 Distal; for ppCTL response, HCC Tumor HCC 1: HCC 1 Tumor; for ppCTL response, HCC Distal HCC 4: HCC 4 Distal
[4] = pP-specifically expanded culture

Substance | Reactive CD8^+ T cell population, HH2 (CD8^+ T cells (PBMCs)) | Reactive CD8^+ T cell population, HH3 (CD8^+ T cells (PBMCs)) | Reactive CD8^+ T cell population, HH8 (CD8^+ T cells (PBMCs)) | Reactive CD8^+ T cell population, HH11 (CD8^+ T cells (PBMCs)) | Reactive CD8^+ T cells, No Expansion, HH6 [1] | Reactive CD8^+ T cells, pP-specific Expansion, Do2 [3] | Reactive CD8^+ T cells, pP-specific Expansion, Do4 [3] | Reactive CD8^+ T cells, pP-specific Expansion, HH6 [3] | ppCTL response, Deceased Donor Liver Do 2 [3, 4] | ppCTL response, Deceased Donor Liver Do 3 [3, 4] | ppCTL response, Deceased Donor Liver Do 4 [3, 4] | ppCTL response, Deceased Donor Liver Do 6 [3, 4] | ppCTL response, End-stage Liver Cirrhosis IHL 11 [3, 4] | ppCTL response, End-stage Liver Cirrhosis IHL 13 [3, 4] | ppCTL response, HCC Distal HCC 1 [3, 4] | ppCTL response, HCC Tumor HCC 1 [3, 4] | ppCTL response, HCC Distal HCC 4 [3, 4] | also measured
ALDsGASLLHL: RIPK4 phosphopeptide, HLA-A*0201 (ALD[pS]GASLLHL; listed as Homo sapiens) | 0 (<0.25% reactive CD8^-+ T cells) | 0 (<0.25% reactive CD8^-+ T cells) | 0 (<0.25% reactive CD8^-+ T cells) | 1 (0.25-2.5% reactive CD8^-+ T cells) | 2 (2.5-5.0% reactive CD8^-+ T cells) | 0 (<0.25% reactive CD8^-+ T cells) | 0 (<0.25% reactive CD8^-+ T cells) | 2 (2.5-5.0% reactive CD8^-+ T cells) | 0 (<0.25% reactive CD8-+ T cells) | 0 (<0.25% reactive CD8-+ T cells) | 0 (<0.25% reactive CD8-+ T cells) | 0 (<0.25% reactive CD8-+ T cells) | 0 (<0.25% reactive CD8-+ T cells) | 0 (<0.25% reactive CD8-+ T cells) | 0 (<0.25% reactive CD8-+ T cells) | 0 (<0.25% reactive CD8-+ T cells) | 0 (<0.25% reactive CD8-+ T cells) | Reactive CD8^+ T cell population, HH6 (CD8^+ T cells (PBMCs); HH patient HH6): 0 (<0.25% reactive CD8^-+ T cells); Reactive CD8^+ T cell population, HD1 (CD8^+ T cells (PBMCs); Healthy donor HD1): 0 (<0.25% reactive CD8^-+ T cells); Reactive CD8^+ T cell population, HD4 (CD8^+ T cells (PBMCs); Healthy donor HD4): 0 (<0.25% reactive CD8^-+ T cells); Reactive CD8^+ T cell population, HD5 (CD8^+ T cells (PBMCs); Healthy donor HD5): 0 (<0.25% reactive CD8^-+ T cells); Reactive CD8^+ T cells, Non-specific Expansion, Do2 ([2]; Do2): 0 (<0.25% reactive CD8^-+ T cells); Reactive CD8^+ T cells, Non-specific Expansion, Do4 ([2]; Do4): 0 (<0.25% reactive CD8^-+ T cells); Reactive CD8^+ T cells, Non-specific Expansion, HH6 ([2]; HH6): 0 (<0.25% reactive CD8^-+ T cells); ppCTL response, End-stage Liver Cirrhosis IHL 12 ([3]; pP-specifically expanded culture, End-stage Liver Cirrhosis IHL 12): 0 (<0.25% reactive CD8-+ T cells); ppCTL response, End-stage Liver Cirrhosis IHL 15 ([3]; pP-specifically expanded culture, End-stage Liver Cirrhosis IHL 15): 3 (5-7.5% reactive CD8-+ T cells); ppCTL response, HCC Distal HCC 9 ([3]; pP-specifically expanded culture, HCC 9 Distal): 0 (<0.25% reactive CD8-+ T cells); ppCTL response, HCC Tumor HCC 9 ([3]; pP-specifically expanded culture, HCC 9 Tumor): 0 (<0.25% reactive CD8-+ T cells); ppCTL response, HCC Distal HCC 12 ([3]; pP-specifically expanded culture, HCC 12 Distal): 0 (<0.25% reactive CD8-+ T cells)
KLFPDtPLAL: ILF3 phosphopeptide, HLA-A*0201 (KLFPD[pT]PLAL; listed as Homo sapiens) | 0 (<0.25% reactive CD8^-+ T cells) | 0 (<0.25% reactive CD8^-+ T cells) | 0 (<0.25% reactive CD8^-+ T cells) | 0 (<0.25% reactive CD8^-+ T cells) | 0 (<0.25% reactive CD8^-+ T cells) | 0 (<0.25% reactive CD8^-+ T cells) | 0 (<0.25% reactive CD8^-+ T cells) | 0 (<0.25% reactive CD8^-+ T cells) | 0 (<0.25% reactive CD8-+ T cells) | 0 (<0.25% reactive CD8-+ T cells) | 0 (<0.25% reactive CD8-+ T cells) | 0 (<0.25% reactive CD8-+ T cells) | 0 (<0.25% reactive CD8-+ T cells) | 0 (<0.25% reactive CD8-+ T cells) | 0 (<0.25% reactive CD8-+ T cells) | 0 (<0.25% reactive CD8-+ T cells) | 0 (<0.25% reactive CD8-+ T cells) | –
RLFsKELRC: TAF13 phosphopeptide, HLA-A*0201 (RLF[pS]KELRC; listed as Homo sapiens) | 2 (2.5-5.0% reactive CD8^-+ T cells) | 0 (<0.25% reactive CD8^-+ T cells) | 0 (<0.25% reactive CD8^-+ T cells) | – | 0 (<0.25% reactive CD8^-+ T cells) | 0 (<0.25% reactive CD8^-+ T cells) | 0 (<0.25% reactive CD8^-+ T cells) | 0 (<0.25% reactive CD8^-+ T cells) | 1 (0.25-2.5% reactive CD8-+ T cells) | 0 (<0.25% reactive CD8-+ T cells) | 0 (<0.25% reactive CD8-+ T cells) | 0 (<0.25% reactive CD8-+ T cells) | 0 (<0.25% reactive CD8-+ T cells) | 0 (<0.25% reactive CD8-+ T cells) | 0 (<0.25% reactive CD8-+ T cells) | 0 (<0.25% reactive CD8-+ T cells) | 0 (<0.25% reactive CD8-+ T cells) | –
RQAsIELPSMAV: LSP1 phosphopeptide, HLA-A*0201 (RQA[pS]IELPSMAV; listed as Homo sapiens) | 0 (<0.25% reactive CD8^-+ T cells) | 0 (<0.25% reactive CD8^-+ T cells) | 0 (<0.25% reactive CD8^-+ T cells) | 0 (<0.25% reactive CD8^-+ T cells) | 1 (0.25-2.5% reactive CD8^-+ T cells) | 0 (<0.25% reactive CD8^-+ T cells) | 0 (<0.25% reactive CD8^-+ T cells) | 0 (<0.25% reactive CD8^-+ T cells) | 0 (<0.25% reactive CD8-+ T cells) | 0 (<0.25% reactive CD8-+ T cells) | 0 (<0.25% reactive CD8-+ T cells) | 1 (0.25-2.5% reactive CD8-+ T cells) | 0 (<0.25% reactive CD8-+ T cells) | 0 (<0.25% reactive CD8-+ T cells) | 0 (<0.25% reactive CD8-+ T cells) | 0 (<0.25% reactive CD8-+ T cells) | 0 (<0.25% reactive CD8-+ T cells) | –
RQDsTPGKVFL: NR2C1 phosphopeptide, HLA-A*0201 (RQD[pS]TPGKVFL; listed as Homo sapiens) | 0 (<0.25% reactive CD8^-+ T cells) | 0 (<0.25% reactive CD8^-+ T cells) | 0 (<0.25% reactive CD8^-+ T cells) | 0 (<0.25% reactive CD8^-+ T cells) | 2 (2.5-5.0% reactive CD8^-+ T cells) | 0 (<0.25% reactive CD8^-+ T cells) | 0 (<0.25% reactive CD8^-+ T cells) | 1 (0.25-2.5% reactive CD8^-+ T cells) | 1 (0.25-2.5% reactive CD8-+ T cells) | 0 (<0.25% reactive CD8-+ T cells) | 0 (<0.25% reactive CD8-+ T cells) | 0 (<0.25% reactive CD8-+ T cells) | 0 (<0.25% reactive CD8-+ T cells) | 0 (<0.25% reactive CD8-+ T cells) | 0 (<0.25% reactive CD8-+ T cells) | 0 (<0.25% reactive CD8-+ T cells) | 0 (<0.25% reactive CD8-+ T cells) | –
RQLsSGVSEI: HSPB1 phosphopeptide, HLA-A*0201 (RQL[pS]SGVSEI; listed as Homo sapiens) | 0 (<0.25% reactive CD8^-+ T cells) | 0 (<0.25% reactive CD8^-+ T cells) | 0 (<0.25% reactive CD8^-+ T cells) | 0 (<0.25% reactive CD8^-+ T cells) | 2 (2.5-5.0% reactive CD8^-+ T cells) | 0 (<0.25% reactive CD8^-+ T cells) | 0 (<0.25% reactive CD8^-+ T cells) | 0 (<0.25% reactive CD8^-+ T cells) | 0 (<0.25% reactive CD8-+ T cells) | 0 (<0.25% reactive CD8-+ T cells) | 0 (<0.25% reactive CD8-+ T cells) | 0 (<0.25% reactive CD8-+ T cells) | 0 (<0.25% reactive CD8-+ T cells) | 0 (<0.25% reactive CD8-+ T cells) | 0 (<0.25% reactive CD8-+ T cells) | 0 (<0.25% reactive CD8-+ T cells) | 0 (<0.25% reactive CD8-+ T cells) | –
